Experimental data: patent publication US11110070B2 (priority 2015, dated 2021)
Entries after “also recorded” stand apart in the source; their conditions may differ.

Columns and labels:
[1] = tested on: 129S6/SvEvTac mice; assay: 3-shock CFC, extinction and reinstatement paradigm; type: in vivo
Protocol: A single injection of saline (0.9% NaCl) far ketamine (30 mg kg^−1) (Ketaset III, Ketamine HCl injection, Fort Dodge Animal Health, Forth Dodge, Iowa) was administered once during the course of each experiment.
A 3-shock CFC paradigm was administered as previously described (Drew et al., 2010; Denny et al., 2014). Mice were placed in the conditioning chamber and received 3 shocks 180, 240, and 300 s later (2 s, 0.75 mA) and were removed 15 s following the last shock. All sessions were scored for freezing using FreezeView2http://actimetrics.com/downloads/freezeframe/).
Extinction began 4 days after the initial 3-shock CFC procedure, or 4 days after the reinstatement procedure. Each group of mice was subjected to 2 extinction trials per day. Each extinction trial lasted 30 min, with an intertrial interval of at least 2 h. For each extinction trial, mice were placed in the same box used for CFC without receiving foot shocks. All trials were scored for freezing. The freezing presented throughout the text represents averaged freezing behavior for the first 3 min of each extinction trial.
Reinstatement took place in the same Coulbourn fear conditioning box, but with altered cues. A 1-shock CFC paradigm was administered as previously described (Drew et al., 2010; Denny et al., 2012; Denny et al., 2014), with the exception of two experiments in which the mice were administered 3 shocks.

[2] = tested on: animals; conditions: in vivo, ip; cited from earlier work
[3] = tested on: C57BL/6NTac mice; assay: Sucrose splash test (ST) in CORT model; type: in vivo; conditions: ketamine 90 mg kg^−1 or fluoxetine, before CORT
Protocol: (§1) Experiment 5 (Pre-ketamine and pre-fluoxetine corticosterone (CORT)): C57BL16NTac mice were injected with ketamine (10, 30, 90 mg kg^−1, i.p.) 1 week before the start of CORT, or administered fluoxetine (18 mg kg^−1 per day) in the drinking water for 3 weeks before the start of CORT. Ketamine was purchased from Merial (100 mg/ml stock solution). Fluoxetine hydrochloride (160 μg/mL, equivalent to 18 mg kg^−1 per day in the drinking water) was purchased from Anawa Trading (Zurich, Switzerland) and dissolved in 0.45% hydroxypropyl-β-cyclodextrin (β-CD) (Sigma-Aldrich, Saint-Quentin Fallavier, France) solution. Following ketamine or fluoxetine treatment, CORT was administered for 3 weeks in the drinking water. CORT (4-pregnen-11b-DIOL-3 20-DIONE 21-hemisuccinate) (35 μg/ml) from. Sigma Aldrich (Saint-Quentin Fallavier, France) was dissolved in vehicle (0.45% β-CD). Control animals received vehicle (0.45% β-CD) throughout the duration of the experiment.
This test consisted of squirting 200 μl of a 10% sucrose solution on the mouse's snout. The grooming duration was quantified using Stopwatch+ (Center for Behavioral Neuroscience, Georgia State University).

[4] = in rodents; cited from earlier work
[5] = tested on: 129S6/SvEvTac mice; assay: Open field (OF) after reinstatement; type: in vivo
Protocol: OF protocol was administered as previously described (Richardson-Jones et al., 2010).

[6] = tested on: military patients; conditions: McGhee et al., cited from earlier work
[7] = tested on: C57BL/6NTac mice; assay: EPM in CORT model; type: in vivo; conditions: ketamine or fluoxetine before CORT
Protocol: as §1
Testing was performed as previously described (A14). […] For the 12956/SvEv experiments, videos were scored using behavioral tracking software (TopScan, CleverSys, Reston, Va.). For the C57BL/6Ntac experiments, all parameters were measured using a videotracker (EPM3C. Bioseb, Vitrolles, France).

[8] = ketamine 1 week before CFC, vs saline
[9] = ketamine 1 week prior to 3-shock reinstatement

CNC1(c2ccccc2Cl)CCCCC1=O (racemic) [ketamine, (RS)-2-(2-chlorophenyl)-2-(methylamino)cyclohexanone]
freezing during 3-shock CFC training ([1]; ketamine 30 mg kg^−1 1 week before CFC, vs saline): comparable levels of freezing
fear response (freezing) during CFC training ([1]; ketamine 1 month before CFC): did not result in a decreased fear response
freezing behavior during extinction ([1]; ketamine 1 month before CFC): did not alter freezing behavior during extinction
fear, first trial of extinction vs first trial of re-extinction (E1 vs. E9) [1, 8]: significantly decreased levels of fear
freezing during the first extinction exposure [1, 8]: significantly less freezing behavior
fear expression during extinction training ([1]; ketamine 1 week following CFC, 1 week prior to extinction): did not alter fear expression during extinction training; also recorded: equal levels of freezing behavior during all extinction trials
subsequent fear expression (reinstatement, secondary extinction) ([1]; ketamine 1 week prior to 1-shock reinstatement (24 h after the last extinction trial)): did not alter subsequent fear expression; also recorded: equal levels of freezing behavior during reinstatement and during secondary extinction trials
fear expression (reinstatement, secondary extinction) [1, 9]: did not alter fear expression; also recorded: comparable levels of fear behavior
fear expression during the first re-exposure ([1]; ketamine 1 h after 3-shock reinstatement): buffered fear expression during the first re-exposure
freezing throughout secondary extinction ([1]; ketamine 1 h after 3-shock reinstatement, vs saline): transiently decreased freezing throughout extinction; also recorded: decreased fear
freezing during extinction ([1]; ketamine 1 h before CFC): froze comparably during extinction; also recorded: equal levels of freezing behavior during almost all extinction trials
subsequent fear expression (secondary extinction trials) ([1]; ketamine 1 h following 1-shock reinstatement): did not alter subsequent fear expression; also recorded: comparable levels of fear behavior during secondary extinction trials
fear expression during extinction ([1]; ketamine 1 h following 3-shock CFC training): did not alter fear expression during extinction; also recorded: equal levels of freezing behavior during all extinction trials
fear expression during extinction training ([1]; ketamine 1 h prior to extinction): did not alter fear expression during extinction training; also recorded: equal levels of freezing behavior during all extinction trials
freezing behavior during extinction ([1]; ketamine 24 h before CFC): did not alter
subsequent fear expression (secondary extinction trials) ([1]; ketamine 24 h following 3-shock reinstatement): did not alter subsequent fear expression; also recorded: comparable levels of freezing behavior
reaction time to the hot plate test [2]: increased reaction time to the hot plate test
latency to groom in the ST (chronic CORT-induced depressive-like phenotype) [3]: prevented the chronic CORT-induced depressive-like phenotype; also recorded: decreased the latency to groom
half-life [4]: only a few hours
number of rearing bouts in the OF ([5]; ketamine 1 week prior to 1-shock reinstatement, vs saline): higher number of rearing bouts; also recorded: increased number of rearing bouts
number of rearing bouts in the OF [5, 9]: comparable number of rearing bouts
prevalence of PTSD ([6]; ketamine during an operation for burns vs no ketamine, 2008): decreased
incidence rate of PTSD ([6]; with and without intraoperative ketamine, 2014): comparable incidence rate of PTSD
time in the closed arms of EPM (anxiety-like phenotype) [7]: Neither ketamine nor fluoxetine robustly protected
